Assay results taken from patent US20080299076A1, “Compunds and compositions that cause non-apoptotic cell death and uses thereof” (priority 2006, published 2008).
pEC50, pIC50: −log10 of the molar value.

How the values were obtained:
Calu-1 cells = test: Sensitivity of Calu-1 lung carcinoma cells to erastin; format: cell-based; details: Homo sapiens; Calu-1 lung carcinoma cells with activating KRAS mutation
Experimental: Erastin was discovered, e.g., in a screen for oncogenic-HRAS-selective lethal compounds. KRAS is more frequently mutated in human cancers than HRAS. Thus, whether erastin is selectively lethal to tumor cells harboring oncogenic KRAS was tested. Calu-1 is a lung carcinoma cell line (Calu-1) with an activating mutation in KRAS. In certain embodiments, Calu-1 cells were sensitive to erastin (IC50=5 μM). Two different lentiviral constructs were used to reduce expression of mutant KRAS.
(Left panel) Calu-1 cells that had been infected with lentiviruses expressing shRNAs targeting GFP (as a control) or KRAS (targeting 19 nucleotides starting at nucleotide 269 or 509) were seeded in 6-well plates, treated with erastin and viability measured using Trypan Blue exclusion on a Beckman Vi-Cell. Error bars represent one SD. (Right panel) Western blot showing KRAS knockdown in Calu-1 cells. Top band=actin, Bottom band=KRAS. Calu-1 cells were infected with nothing (left lane), or lentiviruses containing shRNA constructs targeting GFP or KRAS. For KRAS, the shRNA was designed to match 19 nucleotides starting at the indicated nt.

[1] = tested on: BJ-TERT/LT/ST/RAS^V12 cells; test: Alamar Blue viability assay; format: cell-based, human
Experimental: (a) Calu-1 lung carcinoma cells harboring oncogenic KRAS were infected with lentivirus containing shRNAs targeting KRAS or GFP. Sequences of shRNAs are indicated by starting nucleotide (nt) in the KRAS mRNA coding sequence. Cells were treated with erastin and viability measured by Trypan Blue exclusion. (b) Knockdown of KRAS was confirmed by western blot. (c,d) A673 cells harboring oncogenic BRAF were infected with lentiviral shRNAs targeting BRAF exon 5 (c) or the 5′ UTR (d), luciferase (LUC) (c) or GFP (d). Cells were treated with erastin and viability measured using Alamar Blue (c) and Trypan Blue (d). (e) Knockdown of BRAF was confirmed by western blot. […] BJ-TERT/LT/ST/RAS^V12 cells were treated with erastin alone or in with a MEK inhibitor U0126 (20 μM), MEK inhibitor I (10 μM) or MEK 1/2 inhibitor (50 μM). After 48 h, viability was determined using Trypan Blue. (g) Structures of certain erastin and related analogs. (h) and (i) Dose-response curves were measured for erastin A3 and erastin B2 in BJ-TERT/LT/ST/RAS^V12 cells (black squares) or BJ-TERT cells (grey circles). (j) Calu-1 lung carcinoma cells harboring oncogenic KRAS were infected with lentivirus containing shRNAs targeting KRAS or GFP. Sequences of shRNAs are indicated by starting nucleotide (nt) in the KRAS mRNA coding sequence. Cells were treated with erastin and viability (y-axis) measured by Trypan Blue exclusion. Cells were treated with erastin for 24 hours, and percent inhibition of viability (y-axis) measured using Alamar Blue (k) and Trypan Blue (l). (m) Structures of erastin and related analogs. (n) Dose-response curves were measured for erastin A6, erastin B2, erastin A8 and erastin A9 in BJ-TERT/LT/ST/RAS^V12 cells (squares) or BJ-TERT cells (circles) using Alamar Blue.
Alamar Blue metabolism: 10% Alamar Blue was added to assay plates, which were then incubated for an additional 16 hours. Red fluorescence, resulting from reduction of Alamar Blue, was detected on a Victor3 platereader (ex: 530, em: 590).
Table 2. Activity of RAS-selective lethal compound erastin in tumor cell lines. IC50 values (ng/mL) are shown using the Alamar Blue viability assay. BJ engineered tumor cells express TERT, LT, ST, and oncogenic RAS. Isogenic RAS^V12 lacking cells are identical but lack HRAS^V12. BJ-DRD cells are derived from BJ cells and contain TERT, oncogenic RAS, a truncated from of p53 (p53DD) that disrupts the tetramerization of endogenous p53, a CDK4(R24C) mutant resistant to inhibition by p16INK4A and p151NK4B (the major negative regulators of CDK4) and cyclin D1. These latter protein substitute for LT. HCT-116, A549, Calu-1, and MIA PaCa-2 are tumor cells derived from cancers (colon, lung, lung and pancreatic, respectively) known to have activating mutations in RAS.

HCT 116 = test: Response of tumor cell lines to erastin (dose-response); format: cell-based; details: HCT 116, colorectal carcinoma
Experimental: (§1) Given that oncogenic RAS activates at least four downstream pathways, analysis was performed to identify which downstream effects were necessary for erastin sensitivity. In certain embodiments, the invention provides that erastin inhibits growth and kills genuine tumor cells with RAS mutations. In other embodiments, the invention provides measures of the dose-response of 29 tumor cell lines to erastin, wherein there is at least 50% inhibition of viability in 18 of the cell lines (Table 4). Numerous sarcoma-derived tumor cell lines were sensitive to erastin, consistent with the fact that erastin was discovered in an engineered tumor cell line created from human fibroblasts.

LNCaP = test: as above; format: cell-based
Experimental: as §1

MX2 = test: as above; format: cell-based
Experimental: as §1

SW872 = test: as above; format: cell-based
Experimental: as §1

EWS502 = test: as above; format: cell-based
Experimental: as §1

A431NS = test: as above; format: cell-based; details: Epidermoid carcinoma
Experimental: as §1

C-33A = test: as above; format: cell-based
Experimental: as §1

Hs51.T = test: as above; format: cell-based
Experimental: as §1

MES-SA = test: as above; format: cell-based
Experimental: as §1

HeLa = test: as above; format: cell-based
Experimental: as §1

HOS = test: as above; format: cell-based
Experimental: as §1

A549 = test: as above; format: cell-based; details: A549, lung carcinoma
Experimental: as §1

U-2 OS = test: as above; format: cell-based
Experimental: as §1

HL-60 = test: as above; format: cell-based
Experimental: as §1

Q: Which results are given for `CCOc1ccccc1-n1c(C(C)N2CCN(C(=O)COc3ccc(Cl)cc3)CC2)nc2ccccc2c1=O` (centres unmarked) [erastin, 2-(1-{4-[2-(4-Chloro-phenoxy)-acetyl]-piperazin-1-yl}-ethyl)-3-(2-ethoxy-phenyl)-3H-quinazolin-4-one]?
A: pIC50 (Calu-1 cells): 5.30; RAS-selective lethality ([1]; HRAS^V12-expressing versus HRAS^V12-deficient cells): at least 16 fold; RAS selectivity ([1]; IC50 in BJ-TERT/LT/ST versus BJ-TERT/LT/ST/RAS^V12): >16; Max % killing (HCT 116): 0%; pEC50 (LNCaP; Homo sapiens): 5.22; Max % killing (LNCaP; prostate carcinoma): 32%; pEC50 (MX2; MX2): 4.74; Max % killing (MX2; MX2, Uterine Sarcoma): 71%; Erastin Sensitivity (maximum percent killing, as fraction) (SW872; SW 872): 0.00; Max % killing (SW872; SW872, Liposarcoma): 0%; pEC50 (EWS502; EWS502): 5.00; Erastin Sensitivity (maximum percent killing, as fraction) (EWS502; EWS502): 0.42; Max % killing (EWS502; EWS502, Ewing sarcoma): 42%; Max % killing (A431NS): 0%; pEC50 (C-33A; Homo sapiens): 6.22; Max % killing (C-33A; cervical carcinoma): 21%; pEC50 (Hs51.T): 4.92; Max % killing (Hs51.T; Spindle cell sarcoma): 88%; pEC50 (MES-SA; Homo sapiens): 5.52; Max % killing (MES-SA; Uterine sarcoma): 100%; Max % killing (HeLa; Cervical carcinoma): 94%; pEC50 (HeLa; Homo sapiens): 6.22; pEC50 (HOS; Homo sapiens): 4.77; Max % killing (HOS; Osteosarcoma): 100%; Max % killing (A549): 0%; pEC50 (U-2 OS; Homo sapiens, U2OS): 5.22; Max % killing (U-2 OS; Osteosarcoma): 96%; Erastin Sensitivity (maximum percent killing, as fraction) (HL-60; HL 60): 0.00; Max % killing (HL-60; HL-60, acute promyelocytic leukemia): 0%
